In patent US20140142128A1, “METHODS OF TREATING A DISEASE OR DISORDER ASSOCIATED WITH BRUTON'S TYROSINE KINASE” (Celgene Avilomics Research, Inc., priority 2012, published 2014):

Columns and labels:
[1] = test system: Btk responsive site (Tyr1217) on PLCγ2; experiment: PLCγ2 phosphorylation in Ramos cells; format: cell-based; conditions: human Burkitt lymphoma cell line, read-out: EC50, inhibition of phosphorylation of the Btk responsive site (Tyr1217) on PLCγ2
relapsed/refractory CLL = conditions: lenalidomide 25 mg for 21 days of every 28-day cycle; cited from earlier work

Structure (SMILES): C=CC(=O)Nc1cccc(Nc2nc(Nc3ccc(OCCOC)cc3)ncc2F)c1 [Compound 1, N-(3-(5-fluoro-2-(4-(2-methoxyethoxy)phenylamino)pyrimidin-4-ylamino)phenyl)acrylamide]
- EC50 [1]: 1 to 10 nM

Structure (SMILES): Nc1cccc2c1CN(C1CCC(=O)NC1=O)C2=O (stereo not drawn) [lenalidomide, 3-(4-amino-1-oxo-1,3-dihydro-2H-isoindol-2-yl)piperidine-2,6-dione]
- Clinical responses (CR or PR) in subjects refractory to fludarabine (relapsed/refractory CLL): 30%
- Clinical responses (CR or PR) in subjects with del (11)(q23) and/or del (17)(p13.1) adverse cytogenetics (relapsed/refractory CLL): 47%
